Assay results: paper PMC12655527, “An Investigational Study on the Role of ADME Agents’ Genetic Variation on DD217 Pharmacokinetics and Safety Profile” (Pharmaceuticals, 2025)

How the values were obtained:
CYP = tested on: CYP; set-up: method as in DrugBank. Betrixaban (DB12364); conditions: ref DrugBank. Betrixaban (DB12364); cited from earlier work
P-glycoprotein (ABCB1) = tested on: P-glycoprotein (ABCB1); set-up: method as in earlier work; conditions: cited from earlier work
[1] = tested on: patients undergoing knee replacement surgery; assay: Thromboembolic complications (DVT/PE) during 14-day therapy, phase II trial; format: in vivo, human; conditions: 14 days
Excerpt: (§1) The design, eligibility criteria, and outcomes of the phase II clinical trial evaluating the safety and tolerability of DD217 (NCT05189002, ClinicalTrials.gov) have been described previously. Briefly, this was a multicenter, double-blind, randomized, prospective phase II study designed to determine the optimal dosing regimen and to assess the safety and efficacy of DD217 for the prevention of venous thromboembolism (VTE) in patients undergoing knee replacement surgery. Patients were randomized into one of three groups: two groups received oral DD217 at doses of 40 mg or 60 mg once daily, starting on the morning of the first postoperative day, and one group received the active comparator, dalteparin sodium. The treatment duration was 14 days.
(§2) In total, seven cases of DVT/PE were documented during the trial: four in the DD217 40 mg/day group, one in the DD217 60 mg/day group, and two in the dalteparin sodium group. In addition, two bleeding events were recorded: one clinically relevant non-major bleed in the DD217 60 mg/day group and one clinically non-relevant minor bleed in the dalteparin sodium group.

[2] = tested on: patients undergoing knee replacement surgery; assay: Bleeding events during 14-day therapy, phase II trial; format: in vivo, human
Excerpt: as §1, §2

bleeding events ([2]; dalteparin sodium group, clinically non-relevant minor bleed) | Compound | share of metabolism via CYP (CYP) | P-glycoprotein (ABCB1) substrate status (P-glycoprotein (ABCB1)) | cases of DVT/PE ([1]; dalteparin sodium group (18 patients)) | PE/DVT, n (safety outcomes) ([1]; dalteparin sodium, of 18 patients) | Bleeding, n (safety outcomes) ([2]; dalteparin sodium, 14 days, of 18 patients)
 | COc1ccc(NC(=O)c2ccc(C(=N)N(C)C)cc2)c(C(=O)Nc2ccc(Cl)cn2)c1 [Betrixaban] | < 1% | P-glycoprotein (ABCB1) substrate |  |  | 
one | dalteparin sodium [reference compound] |  |  | two | 2 n | 1 n
